According to ChEMBL document CHEMBL5137081, “N-Heterocyclic 3-Pyridyl Carboxamide Inhibitors of DHODH for the Treatment of Acute Myelogenous Leukemia” (J Med Chem, 2022):
≈ marks a conversion by molar mass, not a printed value.

Legend:
[1] = Intrinsic clearance in rat hepatocytes measured per 10^6 cells; format: ADME, cell-based, Hepatocyte
[2] = Cmax in C57BL/6 mouse at 10 mg/kg, po or 2 mg/kg, iv measured upto 24 hrs by LC-MS/MS analysis; format: ADME, organism-based; set-up: time < 24 hrs, dose 10 mg/kg, route po; settings: in vivo
[3] = Stability in human hepatocytes assessed as intrinsic clearance measured per 10^6 cells incubated upto 120 mins by LC-MS/MS analysis; format: ADME, cell-based, Hepatocyte; settings: 2 h
[4] = Volume of distribution at steady state in Sprague-Dawley rat at 10 mg/kg, po or 2 mg/kg, iv measured upto 24 hrs by LC-MS/MS analysis; format: ADME, organism-based; settings: in vivo
[5] = Volume of distribution at steady state in C57BL/6 mouse at 10 mg/kg, po or 2 mg/kg, iv measured upto 24 hrs by LC-MS/MS analysis; format: ADME, organism-based; settings: in vivo
[6] = molecular target: T1, Dihydroorotate dehydrogenase (quinone), mitochondrial (Homo sapiens, UniProt Q02127)
Description: Binding affinity to His fused human DHODH expressed in Escherichia coli assessed as dissociation half life by surface plasmon resonance assay

[7] = Solubility of compound at pH 7 by HPLC analysis; format: physicochemical; settings: buffer
[8] = Oral bioavailability in Sprague-Dawley rat at 10 mg/kg measured upto 24 hrs by LC-MS/MS analysis; format: ADME, organism-based; settings: in vivo
[9] = Intrinsic clearance in mouse hepatocytes measured per 10^6 cells; format: ADME, cell-based, Hepatocyte
[10] = Cmax in Sprague-Dawley rat at 10 mg/kg, po or 2 mg/kg, iv measured upto 24 hrs by LC-MS/MS analysis; format: ADME, organism-based; set-up: dose 10 mg/kg, time < 24 hrs, route po; settings: in vivo
[11] = Lipophilicity, logD of compound at pH 7.4; format: physicochemical; settings: buffer
[12] = Plasma protein binding in rat assessed as free fraction at 1 uM by equilibrium dialysis based LC-MS/MS analysis; format: ADME, cell-free
[13] = Plasma protein binding in mouse assessed as free fraction at 1 uM by equilibrium dialysis based LC-MS/MS analysis; format: ADME, cell-free
[14] = molecular target: Cytochrome P450 2D6 (Homo sapiens, UniProt P10635); assay: Inhibition of CYP2D6 in human liver microsomes incubated for 10 mins by LC-MS/MS analysis; format: ADME, Microsome
[15] = molecular target: T2, Cytochrome P450 1A2 (Homo sapiens, UniProt P05177); assay: Inhibition of CYP1A2 in human liver microsomes incubated for 10 mins by LC-MS/MS analysis; format: ADME, Microsome
T2 sequence (P05177 whole entry): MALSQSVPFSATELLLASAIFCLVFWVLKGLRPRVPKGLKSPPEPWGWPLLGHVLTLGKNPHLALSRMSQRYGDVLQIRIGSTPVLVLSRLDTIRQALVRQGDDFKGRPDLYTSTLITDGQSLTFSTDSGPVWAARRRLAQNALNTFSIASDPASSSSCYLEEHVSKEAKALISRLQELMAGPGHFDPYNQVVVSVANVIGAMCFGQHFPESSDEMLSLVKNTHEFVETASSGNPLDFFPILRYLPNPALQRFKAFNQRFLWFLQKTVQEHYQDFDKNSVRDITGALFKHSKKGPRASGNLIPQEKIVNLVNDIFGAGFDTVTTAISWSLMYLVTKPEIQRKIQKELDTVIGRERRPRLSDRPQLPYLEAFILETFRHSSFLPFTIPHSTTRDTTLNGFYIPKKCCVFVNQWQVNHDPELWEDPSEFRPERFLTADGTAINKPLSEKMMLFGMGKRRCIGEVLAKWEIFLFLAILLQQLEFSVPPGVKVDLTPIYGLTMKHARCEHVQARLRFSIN

[16] = tested on: MOLM-13; assay: Antiproliferative activity against human MOLM-13 cells incubated for 72 hrs by CellTiter-Glo assay; format: functional, cell-based; settings: MOLM-13, 72 h
[17] = Half life in Sprague-Dawley rat at 10 mg/kg, po or 2 mg/kg, iv measured upto 24 hrs by LC-MS/MS analysis; format: ADME, organism-based; settings: in vivo
[18] = Half life in C57BL/6 mouse at 10 mg/kg, po or 2 mg/kg, iv measured upto 24 hrs by LC-MS/MS analysis; format: ADME, organism-based; settings: in vivo
[19] = Plasma protein binding in human assessed as free fraction at 1 uM by equilibrium dialysis based LC-MS/MS analysis; format: ADME, cell-free
[20] = Metabolic stability in monkey liver microsome assessed as intrinsic clearance pretreated for 5 mins followed by NADPH addition and measured upto 60 mins by HPLC-MS/MS analysis; format: ADME, Macaca mulatta; settings: rhesus monkey, liver microsomes; time < 65 min; read-out: CLH
[21] = molecular target: T1, Dihydroorotate dehydrogenase (quinone), mitochondrial; assay: Binding affinity to His fused human DHODH expressed in Escherichia coli by surface plasmon resonance assay
[22] = molecular target: Cytochrome P450 2C19 (Homo sapiens, UniProt P33261); assay: Inhibition of CYP2C19 in human liver microsomes incubated for 10 mins by LC-MS/MS analysis; format: ADME, Microsome
[23] = Tmax in Sprague-Dawley rat at 10 mg/kg, po or 2 mg/kg, iv measured upto 24 hrs by LC-MS/MS analysis; format: ADME, organism-based; settings: in vivo
[24] = Inhibition of dog DHODH; set-up: species or system Canis lupus familiaris
[25] = molecular target: T3, Cytochrome P450 2C8 (Homo sapiens, UniProt P10632); assay: Inhibition of CYP2C8 in human liver microsomes incubated for 10 mins by LC-MS/MS analysis; format: ADME, Microsome
T3 sequence (P10632 whole entry): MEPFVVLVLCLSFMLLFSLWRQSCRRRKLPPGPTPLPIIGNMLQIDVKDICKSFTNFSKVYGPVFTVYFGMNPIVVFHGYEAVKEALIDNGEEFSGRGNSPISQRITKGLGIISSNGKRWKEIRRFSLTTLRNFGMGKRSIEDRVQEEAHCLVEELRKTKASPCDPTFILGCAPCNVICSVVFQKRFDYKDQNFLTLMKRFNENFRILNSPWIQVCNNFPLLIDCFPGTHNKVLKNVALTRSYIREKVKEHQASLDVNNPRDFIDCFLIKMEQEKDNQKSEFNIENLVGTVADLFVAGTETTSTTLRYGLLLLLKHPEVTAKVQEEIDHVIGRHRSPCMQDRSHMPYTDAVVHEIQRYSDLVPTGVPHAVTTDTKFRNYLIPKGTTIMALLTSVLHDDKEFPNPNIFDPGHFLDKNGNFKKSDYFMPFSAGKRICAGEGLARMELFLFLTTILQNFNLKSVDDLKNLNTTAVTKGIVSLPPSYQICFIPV

[26] = Plasma protein binding in dog assessed as free fraction at 1 uM by equilibrium dialysis based LC-MS/MS analysis; format: ADME, cell-free, Canis lupus familiaris
[27] = molecular target: Cytochrome P450 3A4 (Homo sapiens, UniProt P08684); assay: Inhibition of CYP3A4 in human liver microsomes using midazolam as substrate measured after 5 mins by LC-MS/MS analysis; format: ADME, Microsome
[28] = Oral bioavailability in C57BL/6 mouse at 10 mg/kg measured upto 24 hrs by LC-MS/MS analysis; format: ADME, organism-based; settings: in vivo
[29] = Inhibition of monkey DHODH; set-up: species or system Macaca mulatta
[30] = molecular target: T1, Dihydroorotate dehydrogenase (quinone), mitochondrial; assay: Inhibition of His fused human DHODH expressed in Escherichia coli using DHO as substrate by DCIP absorbance based colorimetry assay
[31] = AUC(0 to infinity) in C57BL/6 mouse at 10 mg/kg, po or 2 mg/kg, iv measured upto 24 hrs by LC-MS/MS analysis; format: ADME, organism-based; set-up: time < 24 hrs, dose 10 mg/kg, route po; settings: in vivo

T1 sequence (Q02127 whole entry): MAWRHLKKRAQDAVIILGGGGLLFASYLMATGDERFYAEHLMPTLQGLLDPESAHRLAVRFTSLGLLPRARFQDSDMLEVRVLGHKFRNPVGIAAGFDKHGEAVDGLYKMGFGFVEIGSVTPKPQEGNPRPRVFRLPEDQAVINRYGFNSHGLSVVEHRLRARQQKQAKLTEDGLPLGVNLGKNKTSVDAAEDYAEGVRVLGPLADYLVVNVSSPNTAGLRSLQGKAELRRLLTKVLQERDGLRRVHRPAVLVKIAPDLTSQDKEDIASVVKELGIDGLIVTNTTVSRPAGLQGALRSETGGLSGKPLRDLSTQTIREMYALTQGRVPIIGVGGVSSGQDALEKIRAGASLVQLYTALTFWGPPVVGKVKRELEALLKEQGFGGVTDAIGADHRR
Sequence of Cytochrome P450 3A4 (P08684 whole entry): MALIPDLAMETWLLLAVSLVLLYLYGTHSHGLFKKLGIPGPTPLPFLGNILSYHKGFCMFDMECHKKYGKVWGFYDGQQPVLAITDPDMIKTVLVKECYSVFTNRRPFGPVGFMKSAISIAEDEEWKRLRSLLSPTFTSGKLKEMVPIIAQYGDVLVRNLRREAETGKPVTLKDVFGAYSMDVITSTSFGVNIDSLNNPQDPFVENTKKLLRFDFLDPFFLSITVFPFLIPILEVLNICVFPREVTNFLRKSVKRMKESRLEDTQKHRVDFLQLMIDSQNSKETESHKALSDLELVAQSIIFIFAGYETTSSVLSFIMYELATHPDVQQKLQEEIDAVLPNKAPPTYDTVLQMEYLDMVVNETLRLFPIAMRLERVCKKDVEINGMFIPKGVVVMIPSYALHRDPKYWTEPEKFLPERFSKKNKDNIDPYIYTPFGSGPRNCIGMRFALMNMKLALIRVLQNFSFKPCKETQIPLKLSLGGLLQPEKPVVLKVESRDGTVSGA
Sequence of Cytochrome P450 2C19 (P33261 whole entry): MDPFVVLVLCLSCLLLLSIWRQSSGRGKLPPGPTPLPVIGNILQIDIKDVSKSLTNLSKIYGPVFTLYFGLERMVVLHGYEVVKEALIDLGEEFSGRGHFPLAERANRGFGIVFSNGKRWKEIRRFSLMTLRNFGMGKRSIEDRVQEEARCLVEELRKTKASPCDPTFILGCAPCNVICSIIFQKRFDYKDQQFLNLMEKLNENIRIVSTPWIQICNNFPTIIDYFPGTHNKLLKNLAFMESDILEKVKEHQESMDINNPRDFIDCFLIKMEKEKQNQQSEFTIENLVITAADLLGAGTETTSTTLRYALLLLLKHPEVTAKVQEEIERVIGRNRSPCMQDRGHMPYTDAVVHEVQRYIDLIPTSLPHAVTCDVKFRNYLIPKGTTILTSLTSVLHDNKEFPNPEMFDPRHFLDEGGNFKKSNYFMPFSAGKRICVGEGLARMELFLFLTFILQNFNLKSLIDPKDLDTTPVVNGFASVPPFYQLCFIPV
Sequence of Cytochrome P450 2D6 (P10635 whole entry): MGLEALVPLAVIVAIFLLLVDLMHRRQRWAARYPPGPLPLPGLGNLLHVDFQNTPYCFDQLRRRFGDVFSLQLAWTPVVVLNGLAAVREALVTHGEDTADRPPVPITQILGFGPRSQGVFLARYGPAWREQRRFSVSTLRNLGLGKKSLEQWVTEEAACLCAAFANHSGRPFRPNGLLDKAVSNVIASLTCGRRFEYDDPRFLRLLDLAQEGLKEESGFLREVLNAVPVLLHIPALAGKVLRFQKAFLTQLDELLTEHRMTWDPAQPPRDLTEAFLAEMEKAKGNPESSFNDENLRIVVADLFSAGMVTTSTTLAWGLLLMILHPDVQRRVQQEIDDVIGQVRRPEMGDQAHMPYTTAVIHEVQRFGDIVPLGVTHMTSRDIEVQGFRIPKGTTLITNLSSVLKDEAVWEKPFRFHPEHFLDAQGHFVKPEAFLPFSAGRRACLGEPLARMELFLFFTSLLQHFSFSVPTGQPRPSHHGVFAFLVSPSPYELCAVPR

Structure (SMILES) | CLH [1] | Cmax [2] | CLH [3] | Vdss [4] | Vdss [5] | T1/2 [6] | solubility [7] | CLH [9] | Cmax [10] | logD [11] | fraction unbound at 1 µM [12] | fraction unbound at 1 µM [13] | IC50 [14] | IC50 [15] | IC50 [16] | half-life [17] | half-life [18] | fraction unbound at 1 µM [19] | CLint scaled [20] | Kd [21] | other results
CCn1c(CO)nn(-c2nc(O[C@@H](C)C(F)(F)F)c(C(=O)Nc3c(C)ccnc3Cl)cc2F)c1=O | 5.2 µL/min/1e6 cells | 4050 ng/mL | < 1.9 µL/min/1e6 cells | 2.3 L/kg | 1.3 L/kg | 0.5 h | > 400 µM | 5.7 µL/min/1e6 cells | 1710 ng/mL | 2.7 | 0.28 | 0.23 | > 10000 nM | > 10000 nM | 2 nM | 2 h | 2.3 h | 0.38 | 4 mL/min/kg | 3.3 nM | F ([8]; po, 10 mg/kg, 24 h): 167%; IC50 [22]: > 10000 nM; Tmax [23]: 1.7 h; IC50 [24]: 8.5 nM; IC50 [25]: > 10000 nM; fraction unbound at 1 µM [26]: 0.33; IC50 [27]: > 10000 nM; bioavailability [28]: 103%; IC50 [29]: 1.6 nM; IC50 [30]: 1.1 nM; AUC(0-inf) [31]: 16100 ng·h/mL
CCn1c(CO)nn(-c2nc(O[C@@H](C)C(F)(F)F)c(C(=O)Nc3c(C)cnc(OC)c3Cl)cc2F)c1=O | 6.2 µL/min/1e6 cells | 3810 ng/mL | 2.3 µL/min/1e6 cells | 2.2 L/kg | 2.4 L/kg | 0.65 h | 5 µM (≈ 2.74 µg/mL) | 5.5 µL/min/1e6 cells | 2190 ng/mL | 2.4 | 0.078 | 0.062 | > 10000 nM | > 10000 nM | 0.4 nM | 4 h | 5 h | 0.063 | 5.3 mL/min/kg | 1.1 nM | bioavailability ([8]; Sprague-Dawley): 106%; IC50 [22]: > 10000 nM; Tmax [23]: 4 h; IC50 [24]: 4.2 nM; IC50 [25]: > 10000 nM; fraction unbound at 1 µM [26]: 0.042; IC50 [27]: > 10000 nM; bioavailability [28]: 110%; IC50 [29]: 0.54 nM; IC50 [30]: 0.3 nM; AUC(0-inf) [31]: 25000 ng·h/mL
